Test [1] has as its target T1, Rat M4 (Rattus norvegicus, UniProt P08485).
T1 construct: expressed in transfected cells; host or cells: CHO-K1 (ATCC), stably expressing M4 and Gqi5
T1 sequence (P08485 1-478): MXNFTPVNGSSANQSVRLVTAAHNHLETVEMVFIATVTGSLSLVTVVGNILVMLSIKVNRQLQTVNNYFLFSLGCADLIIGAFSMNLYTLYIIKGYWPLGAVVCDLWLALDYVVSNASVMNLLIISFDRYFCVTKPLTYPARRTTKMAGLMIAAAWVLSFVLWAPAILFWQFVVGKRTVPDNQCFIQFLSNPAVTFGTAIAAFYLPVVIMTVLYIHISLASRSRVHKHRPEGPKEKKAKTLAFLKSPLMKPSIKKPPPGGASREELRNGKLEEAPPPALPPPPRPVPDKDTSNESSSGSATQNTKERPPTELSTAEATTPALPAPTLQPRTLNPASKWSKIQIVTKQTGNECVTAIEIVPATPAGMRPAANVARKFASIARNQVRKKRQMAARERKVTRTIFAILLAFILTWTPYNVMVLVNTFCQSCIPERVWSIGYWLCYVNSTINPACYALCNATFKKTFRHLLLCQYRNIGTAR
Put plainly: mAChR M4 cell-based functional calcium flux assay (rat M4/Gqi5/CHO cells). As to conditions: for Emin (rat M4): % ACh maximum at 30 μM. A digest of the protocol:
(§1)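 CHO-K1 cells stably co-expressing M4 of the given species with chimeric Gqi5 were loaded with Fluo-4 AM and read for calcium flux. Compounds (10-point, 1:3 dilutions) were added first, followed by an acetylcholine EC20 at 143 s and an EC80 at 268 s. IC50 reflects the concentration-dependent fall in the EC80 response, fitted with a four-parameter logistic.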
On the technique in general: Calcium flux is commonly read through the fluorescence of an indicator in the cells.

Test [2] deals with T2, Human M4 (Homo sapiens, UniProt P08173).
T2 construct: expressed in transfected cells; host or cells: CHO-K1 (ATCC), stably expressing M4 and Gqi5
T2 sequence (P08173 1-479): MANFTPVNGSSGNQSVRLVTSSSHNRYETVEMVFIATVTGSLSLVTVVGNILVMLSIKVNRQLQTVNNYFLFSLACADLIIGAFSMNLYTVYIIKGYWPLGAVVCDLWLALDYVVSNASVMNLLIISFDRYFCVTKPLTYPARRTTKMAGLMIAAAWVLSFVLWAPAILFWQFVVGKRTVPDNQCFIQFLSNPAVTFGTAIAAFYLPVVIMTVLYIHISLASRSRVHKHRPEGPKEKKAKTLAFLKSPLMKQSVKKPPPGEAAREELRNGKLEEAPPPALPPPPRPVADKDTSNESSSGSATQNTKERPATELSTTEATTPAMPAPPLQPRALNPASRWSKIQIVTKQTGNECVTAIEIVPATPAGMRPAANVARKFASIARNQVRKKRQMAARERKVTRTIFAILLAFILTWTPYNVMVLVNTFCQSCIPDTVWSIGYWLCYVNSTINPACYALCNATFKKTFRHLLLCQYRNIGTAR
The test is described as follows: mAChR M4 cell-based functional calcium flux assay (human M4/Gqi5/CHO cells). To be noted: for Emin (human M4): % ACh maximum at 30 μM; for IC50: decrease of the response to an EC80 concentration of acetylcholine. The procedure, abridged: as §1

Where [3] appears, read: decrease of the response to an EC80 concentration of acetylcholine.

Where only a bound is given, the exact number is not on record here.

In general, IC50 refers to the concentration at which inhibition is half-maximal.

For the compound `Cc1nn(C)cc1-c1ccc(NCC2CC23CCN(CC(c2ccccc2)c2ccccc2)CC3)nn1` (stereo not drawn) [Compound 59, 6-(1,3-dimethylpyrazol-4-yl)-N-[[6-(2,2-diphenylethyl)-6-azaspiro[2.5]octan-2-yl]methyl]pyridazin-3-amine], the “Emin (rat M4)” value in test [1] amounted to 4.58%. The IC50 in test [1] (setting [3]) amounted to 1.88 µM. For the same compound, in test [2], the “Emin (human M4)” value was 3.31% and the IC50 came out at 543 nM.

As for `Cc1nn(C)cc1-c1ccc(NCC2CC23CCN(CC2CCCOC2)CC3)nn1` (stereo not drawn) [Compound 60, 6-(1,3-dimethylpyrazol-4-yl)-N-[[6-(tetrahydropyran-3-ylmethyl)-6-azaspiro[2.5]octan-2-yl]methyl]pyridazin-3-amine], the “Emin (rat M4)” value in test [1] came out at 12.3%. Further, in test [1] (setting [3]), the IC50 came out at 1.89 µM. For the same compound, in test [2], the “Emin (human M4)” value worked out at 3.93% and the IC50 turned out to be 114 nM.

Consider `Cc1nn(C)cc1-c1ccc(NCC2CC23CCN(CC2CCOCC2)CC3)nn1` (stereo not drawn) [Compound 61, 6-(1,3-dimethylpyrazol-4-yl)-N-[[6-(tetrahydropyran-4-ylmethyl)-6-azaspiro[2.5]octan-2-yl]methyl]pyridazin-3-amine], for which, in test [1], the “Emin (rat M4)” value amounted to 5.67%. Moreover, the IC50 worked out at 0.199 µM in test [1] (setting [3]) and 11.5 nM in test [2]. In addition, the “Emin (human M4)” value in test [2] came out at 3.54%.

For the compound `Cc1cccnc1CN1CCC2(CC1)CC2CNc1ccc(-c2cn(C)nc2C)nn1` (stereo not drawn) [Compound 62, 6-(1,3-dimethylpyrazol-4-yl)-N-[[6-[(3-methyl-2-pyridyl)methyl]-6-azaspiro[2.5]octan-2-yl]methyl]pyridazin-3-amine], the “Emin (rat M4)” value in test [1] was found to be 19.9%. Moreover, the IC50 in test [1] (setting [3]) came out at 4.46 µM. In test [2], the “Emin (human M4)” value is on record as 4.23% and the IC50 worked out at 271 nM.

As to `Cc1nn(C)cc1-c1ccc(NCC2CC23CCN(Cc2ncccc2C(F)(F)F)CC3)nn1` (stereo not drawn) [Compound 63, 6-(1,3-dimethylpyrazol-4-yl)-N-[[6-[[3-(trifluoromethyl)-2-pyridyl]methyl]-6-azaspiro[2.5]octan-2-yl]methyl]pyridazin-3-amine], the “Emin (rat M4)” value in test [1] amounted to 19.9%. In addition, the IC50 in test [1] (cells printed in μM, decrease of the EC80 acetylcholine response) is > 10 µM. Besides, in test [2], the “Emin (human M4)” value is recorded as 4.53% and the concentration for half-maximal inhibition (IC50) was determined as 537 nM.

In the case of `CC(C)(C)CCN1CCC2(CC1)C[C@H]2CNc1ccc(-c2cc(F)ccc2Cl)nn1` [Compound 64, (R)-6-(2-chloro-5-fluoro-phenyl)-N-[[6-(3,3-dimethylbutyl)-6-azaspiro[2.5]octan-2-yl]methyl]pyridazin-3-amine], in test [1], the “Emin (rat M4)” value amounted to 3.68%. Moreover, in test [1] (setting [3]), the IC50 came out at 0.0332 µM. Besides, in test [2], the “Emin (human M4)” value was determined as 2.90% and the IC50 was 11 nM.

Regarding `Fc1ccc(Cl)c(-c2ccc(NC[C@@H]3CC34CCN(CC3CCCCC3)CC4)nn2)c1` [Compound 65, (R)-6-(2-chloro-5-fluoro-phenyl)-N-[[6-(cyclohexylmethyl)-6-azaspiro[2.5]octan-2-yl]methyl]pyridazin-3-amine], in test [1], the “Emin (rat M4)” value worked out at 4.33%. Moreover, the IC50 in test [1] (setting [3]) was determined as 0.0809 µM. In test [2], the “Emin (human M4)” value is recorded as 2.62% and the IC50 was 12.7 nM.

On to `CC(C)(C)CCN1CCC2(CC1)C[C@@H]2CNc1ccc(-c2cc(F)ccc2Cl)nn1` [Compound 66, (S)-6-(2-chloro-5-fluoro-phenyl)-N-[[6-(3,3-dimethylbutyl)-6-azaspiro[2.5]octan-2-yl]methyl]pyridazin-3-amine], for which the “Emin (rat M4)” value in test [1] was found to be 3.95%. Further, the IC50 in test [1] (setting [3]) is 0.151 µM; in test [2], 9.91 nM. In addition, the “Emin (human M4)” value in test [2] was determined as 3.50%.

With `Fc1ccc(Cl)c(-c2ccc(NC[C@H]3CC34CCN(CC3CCCCC3)CC4)nn2)c1` [Compound 67, (S)-6-(2-chloro-5-fluoro-phenyl)-N-[[6-(cyclohexylmethyl)-6-azaspiro[2.5]octan-2-yl]methyl]pyridazin-3-amine], the “Emin (rat M4)” value in test [1] stood at 4.36%. In addition, the IC50 in test [1] (setting [3]) was determined as 0.527 µM. In addition, in test [2], the “Emin (human M4)” value was found to be 3.66% and the IC50 amounted to 27.8 nM.
